Biological target: hTREM2 (Homo sapiens, UniProt Q9NZC2)
Assay: TREM2 agonist potency by Syk phosphorylation (AlphaLisa) in HEK293T-hTREM2 cells, used for Examples 306-429
Assay type: cell-based
Design: expressed in transfected cells; host or cells: HEK293T (HEK293T-hTREM2 cells)
Conditions: HEK293 Cells
Description: In vitro Measurement of Triggering Receptor Expressed on Myeloid Cells 2 activity using cellular phosphorylation of Spleen Tyrosine Kinase (“Syk”) Assays used for Examples 306-429
Measurement of TREM2 agonist potency was done using a HEK cell line expressing human TREM2 and DAP12 (HEK293T-hTREM2 cells). Binding of small molecules to, and activation of, TREM2 increases the phosphorylation of Syk. The resultant levels of Syk phosphorylation were measured using a commercial AlphaLisa reagent kit. To perform the assay, HEK-hTREM2 cells were plated at 14,000 cells per well in a 384 well plate, in 25 μL, of complete growth media and incubated at 37° C., 5% CO2 for 20-24 hours. Prior to the assay, test compounds were diluted in the 384 well plates in assay buffer and allowed to equilibrate for 30 minutes. Growth media was removed from cell plates by inversion on blotting paper, and 25 μL of test compounds in assay buffer was added to cells. Cells were incubated for 45 minutes at room temperature. After 45 minutes, assay buffer was removed and 10 μL of lysis buffer was added. Plates were shaken for 20 minutes at 350 RPM at room temperature. After complete lysis, AlphaLisa reagents were added to the lysate, and fluourescence intensity was measured using a Perkin Elmer Envision plate reader. Intensities were used to generate a standard curve, and % activation was calculated. Curve fitting was performed using Prism v9 software, log(agonist) vs response-variable slope (four parameters), and EC50s were calculated from the curve fit.
The results presented in Table 20 have been generated with the in vitro assay described above for Examples 306-429. This assay may be used to test any of the compounds described herein to assess and characterize a compound's ability to act as an agonist of TREM2.

Chain of hTREM2 (Q9NZC2 19-230): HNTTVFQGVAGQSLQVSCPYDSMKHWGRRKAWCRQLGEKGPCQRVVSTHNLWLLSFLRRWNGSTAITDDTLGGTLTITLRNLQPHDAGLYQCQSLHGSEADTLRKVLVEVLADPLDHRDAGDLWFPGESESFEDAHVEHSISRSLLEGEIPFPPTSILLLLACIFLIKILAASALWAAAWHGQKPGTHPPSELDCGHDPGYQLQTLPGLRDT
Chain of hTREM2 (O43914 22-113 partner): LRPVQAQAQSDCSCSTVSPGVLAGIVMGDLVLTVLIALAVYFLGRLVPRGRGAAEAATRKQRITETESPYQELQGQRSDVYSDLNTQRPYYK

EC50 [nM] | Structure (SMILES)
≤ 50 | Cc1cnc2c(-c3ccc(F)cc3F)nc(N3C[C@@H](C)O[C@@H](c4cnn(C5CC5)c4)C3)nc2n1 [Example 420, (2S,6R)-2-(1-cyclopropyl-1H-pyrazol-4-yl)-4-(4-(2,4-difluorophenyl)-7-methylpteridin-2-yl)-6-methylmorpholine]
≤ 50 | Cc1cc(C2CC(c3cc4nc(C)c(C)nc4c([C@]45C[C@](C(F)(F)F)(C4)C5)n3)CCO2)ccn1 (mixture of isomers) [Example 319, 2,3-dimethyl-7-(2-(2-methylpyridin-4-yl)tetrahydro-2H-pyran-4-yl)-5-(3-(trifluoromethyl)bicyclo[1.1.1]pentan-1-yl)pyrido[3,4-b]pyrazine]
50 to 500 | Cc1cc([C@H]2C[C@@H](c3cc4nc(C)cnc4c(-c4ccc(F)cc4F)n3)CCO2)ccn1 (racemic) [Example 307, 5-(2,4-difluorophenyl)-2-methyl-7-(2-(2-methylpyridin-4-yl)tetrahydro-2H-pyran-4-yl)pyrido[3,4-b]pyrazine]
50 to 500 | Cc1cc(C2CN(c3cc4nc(C)cnc4c(-c4ccc(C(F)(F)F)nc4)n3)CCO2)ccn1 (centres unmarked) [Example 311, 4-(2-methyl-5-(6-(trifluoromethyl)pyridin-3-yl)pyrido[3,4-b]pyrazin-7-yl)-2-(2-methylpyridin-4-yl)morpholine]
50 to 500 | Cc1cc(C2CN(c3nc(-c4ccc(Cl)cc4C(F)(F)F)c4nc(C)c(C)nc4n3)CCO2)ccn1 (centres unmarked) [Example 343, 4-(4-(4-chloro-2-(trifluoromethyl)phenyl)-6,7-dimethylpteridin-2-yl)-2-(2-methylpyridin-4-yl)morpholine]
50 to 500 | Cc1cc([C@H]2C[C@H](c3cc4nc(C)c(C)nc4c(-c4ccc(C(F)(F)F)nc4)n3)CCO2)ccn1 (racemic) [Example 306]
≤ 50 | COc1cc(C2CN(c3nc4nc(C)c(C)nc4c([C@]45C[C@](C(F)(F)F)(C4)C5)n3)CCO2)ccn1 (mixture of isomers) [Example 318, 4-(6,7-dimethyl-4-(3-(trifluoromethyl)bicyclo[1.1.1]pentan-1-yl)pteridin-2-yl)-2-(2-methoxypyridin-4-yl)morpholine]
50 to 500 | Cc1cnc2c(-c3ccc(F)cc3F)nc(N3C[C@H](C)O[C@@H](c4cnn(C5CC5)c4)C3)cc2n1 (racemic) [Example 361, 2-(1-cyclopropyl-1H-pyrazol-4-yl)-4-(5-(2,4-difluorophenyl)-2-methylpyrido[3,4-b]pyrazin-7-yl)-6-methylmorpholine]
≤ 50 | Cc1cc(C2CC(c3cc4nc(C)ccc4c(-c4ccc(F)cc4F)n3)CCO2)ccn1 (centres unmarked) [Example 326, 5-(2,4-difluorophenyl)-2-methyl-7-(2-(2-methylpyridin-4-yl)tetrahydro-2H-pyran-4-yl)-1,6-naphthyridine]
≤ 50 | Cc1cc(C2CN(c3cc4nc(C)c(C)nc4c(-c4ccc(F)cc4F)n3)CCO2)ccn1 (centres unmarked) [Example 315, 4-(5-(2,4-difluorophenyl)-2,3-dimethylpyrido[3,4-b]pyrazin-7-yl)-2-(2-methylpyridin-4-yl)morpholine]
50 to 500 | Cc1cnc2c(-c3ccc(F)cc3F)nc([C@H]3C[C@@H](C)O[C@@H](c4cnn(C5CC5)c4)C3)cc2n1 [Example 417, 7-((2R,4S,6R)-2-(1-cyclopropyl-1H-pyrazol-4-yl)-6-methyltetrahydro-2H-pyran-4-yl)-5-(2,4-difluorophenyl)-2-methylpyrido[3,4-b]pyrazine]
500 to 3000 | Cc1cnc2c(-c3ccc(Cl)cc3F)nc([C@@H]3CCO[C@@H](c4cnn(C5CC5)c4)C3)nc2n1 [Example 350, 4-(4-chloro-2-fluorophenyl)-2-((2R,4R)-2-(1-cyclopropyl-1H-pyrazol-4-yl)tetrahydro-2H-pyran-4-yl)-7-methylpteridine]
50 to 500 | Cc1cnc2c(-c3ccc(Cl)cc3F)nc(N3C[C@@H](c4cnn(C5CC5)c4)O[C@@H](C)C3)nc2n1 [Example 423, (2R,6S)-4-(4-(4-chloro-2-fluorophenyl)-7-methylpteridin-2-yl)-2-(1-cyclopropyl-1H-pyrazol-4-yl)-6-methylmorpholine]
≤ 50 | Cc1nc2nc(N3C[C@@H](C)O[C@@H](c4cnn(C5CC5)c4)C3)nc(C34CC(C(F)(F)F)(C3)C4)c2nc1C [Example 411, (2S,6R)-2-(1-cyclopropyl-1H-pyrazol-4-yl)-4-(6,7-dimethyl-4-(3-(trifluoromethyl)bicyclo[1.1.1]pentan-1-yl)pteridin-2-yl)-6-methylmorpholine]
≤ 50 | Cc1nc2nc(N3C[C@@H](C)O[C@@H](c4cnn(C5CC5)c4)C3)nc(-c3ccc(Cl)cc3F)c2nc1C [Example 425, (2S,6R)-4-(4-(4-chloro-2-fluorophenyl)-6,7-dimethylpteridin-2-yl)-2-(1-cyclopropyl-1H-pyrazol-4-yl)-6-methylmorpholine]
≤ 50 | Cc1cc([C@H]2CN(c3nc(-c4cc(F)c(Cl)cc4F)c4nc(C)c(C)nc4n3)CCO2)ccn1 [Example 387, (2S)-4-[4-(4-chloro-2,5-difluoro-phenyl)-6,7-dimethyl-pteridin-2-yl]-2-(2-methyl-4-pyridyl)morpholine]
≤ 50 | Cc1nc2cc(N3C[C@@H](c4cnn(C5CC5)c4)O[C@@H](C)C3)nc(-c3ccc(F)cc3F)c2nc1C [Example 398, (2R,6S)-2-(1-cyclopropyl-1H-pyrazol-4-yl)-4-(5-(2,4-difluorophenyl)-2,3-dimethylpyrido[3,4-b]pyrazin-7-yl)-6-methylmorpholine]
≤ 50 | Cc1cnc2c(-c3ccc(F)cc3F)nc(N3CCOC(c4cnn(C5CC5)c4)C3)cc2n1 (centres unmarked) [Example 341, 2-(1-cyclopropyl-1H-pyrazol-4-yl)-4-(5-(2,4-difluorophenyl)-2-methylpyrido[3,4-b]pyrazin-7-yl)morpholine]
≤ 50 | Cc1nc2nc(N3C[C@@H](C)O[C@@H](c4cnn(C5CC5)c4)C3)nc(-c3ccc(F)cc3F)c2nc1C [Example 427, (2S,6R)-2-(1-cyclopropyl-1H-pyrazol-4-yl)-4-(4-(2,4-difluorophenyl)-6,7-dimethylpteridin-2-yl)-6-methylmorpholine]
≤ 50 | Cc1cc(C2CN(c3cc4nc(C)c(C)cc4c(-c4ccc(Cl)cc4F)n3)CCO2)ccn1 (centres unmarked) [Example 344, 4-(5-(4-chloro-2-fluorophenyl)-2,3-dimethyl-1,6-naphthyridin-7-yl)-2-(2-methylpyridin-4-yl)morpholine]
≤ 50 | Cc1nc2nc(N3CCOC(c4cnn(C5CC5)c4)C3)nc(-c3ccc(Cl)cc3F)c2nc1C (centres unmarked) [Example 381, 4-[4-(4-chloro-2-fluoro-phenyl)-6,7-dimethyl-pteridin-2-yl]-2-(1-cyclopropylpyrazol-4-yl)morpholine]
≤ 50 | Cc1cc(C2CN(c3cc4nc(C)c(C)cc4c(-c4ccc(C(F)(F)F)nc4)n3)CCO2)ccn1 (centres unmarked) [Example 347, 4-(2,3-dimethyl-5-(6-(trifluoromethyl)pyridin-3-yl)-1,6-naphthyridin-7-yl)-2-(2-methylpyridin-4-yl)morpholine]
≤ 50 | Cc1cc([C@H]2C[C@@H](c3cc4nc(C)c(C)cc4c(-c4ccc(Cl)cc4F)n3)CCO2)ccn1 (racemic) [Example 401, 5-(4-chloro-2-fluoro-phenyl)-2,3-dimethyl-7-[2-(2-methyl-4-pyridyl)tetrahydropyran-4-yl]-1,6-naphthyridine]

From US11884675B2, “Heterocyclic compounds as triggering receptor expressed on myeloid cells 2 agonists and methods of use” (AMGEN INC., priority 2020, dated 2024)
